These results are taken from publication PMC6046546, “Gossypol Inhibits Non-small Cell Lung Cancer Cells Proliferation by Targeting EGFR^L858R/T790M” (Frontiers in Pharmacology, 2018).

Usually EC50 stands for the midpoint of the concentration-response curve.

In one assay the target is T1, EGFR^L858R/T790M (Homo sapiens, UniProt P00533, L858R/T790M).
T1 construct: kinase domain
Put plainly: ELISA kinase activity assay, recombinant kinase, poly(Glu,Tyr) […] substrate, […] ATP. The class given is biochemical. A general note: In an ELISA, binding on a coated surface is turned into a signal by an enzyme label.

Another assay concerns the target EGFR^WT (Homo sapiens, UniProt P00533). In words: ELISA kinase activity assay, poly(Glu,Tyr) […] substrate, […] ATP. The class given is biochemical.

T1 sequence (P00533 696-1022 T790M/L858R limits assumed): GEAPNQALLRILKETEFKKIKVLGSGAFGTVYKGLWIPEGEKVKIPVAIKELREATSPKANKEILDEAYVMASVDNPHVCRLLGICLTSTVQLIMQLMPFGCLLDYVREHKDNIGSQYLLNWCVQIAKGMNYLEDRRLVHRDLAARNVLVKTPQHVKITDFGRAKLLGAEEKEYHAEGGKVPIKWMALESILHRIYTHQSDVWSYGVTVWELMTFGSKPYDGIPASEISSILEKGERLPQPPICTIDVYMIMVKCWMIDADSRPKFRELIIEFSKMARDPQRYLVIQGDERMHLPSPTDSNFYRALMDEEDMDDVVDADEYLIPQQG
EGFR^WT, sequence (P00533 25-1210): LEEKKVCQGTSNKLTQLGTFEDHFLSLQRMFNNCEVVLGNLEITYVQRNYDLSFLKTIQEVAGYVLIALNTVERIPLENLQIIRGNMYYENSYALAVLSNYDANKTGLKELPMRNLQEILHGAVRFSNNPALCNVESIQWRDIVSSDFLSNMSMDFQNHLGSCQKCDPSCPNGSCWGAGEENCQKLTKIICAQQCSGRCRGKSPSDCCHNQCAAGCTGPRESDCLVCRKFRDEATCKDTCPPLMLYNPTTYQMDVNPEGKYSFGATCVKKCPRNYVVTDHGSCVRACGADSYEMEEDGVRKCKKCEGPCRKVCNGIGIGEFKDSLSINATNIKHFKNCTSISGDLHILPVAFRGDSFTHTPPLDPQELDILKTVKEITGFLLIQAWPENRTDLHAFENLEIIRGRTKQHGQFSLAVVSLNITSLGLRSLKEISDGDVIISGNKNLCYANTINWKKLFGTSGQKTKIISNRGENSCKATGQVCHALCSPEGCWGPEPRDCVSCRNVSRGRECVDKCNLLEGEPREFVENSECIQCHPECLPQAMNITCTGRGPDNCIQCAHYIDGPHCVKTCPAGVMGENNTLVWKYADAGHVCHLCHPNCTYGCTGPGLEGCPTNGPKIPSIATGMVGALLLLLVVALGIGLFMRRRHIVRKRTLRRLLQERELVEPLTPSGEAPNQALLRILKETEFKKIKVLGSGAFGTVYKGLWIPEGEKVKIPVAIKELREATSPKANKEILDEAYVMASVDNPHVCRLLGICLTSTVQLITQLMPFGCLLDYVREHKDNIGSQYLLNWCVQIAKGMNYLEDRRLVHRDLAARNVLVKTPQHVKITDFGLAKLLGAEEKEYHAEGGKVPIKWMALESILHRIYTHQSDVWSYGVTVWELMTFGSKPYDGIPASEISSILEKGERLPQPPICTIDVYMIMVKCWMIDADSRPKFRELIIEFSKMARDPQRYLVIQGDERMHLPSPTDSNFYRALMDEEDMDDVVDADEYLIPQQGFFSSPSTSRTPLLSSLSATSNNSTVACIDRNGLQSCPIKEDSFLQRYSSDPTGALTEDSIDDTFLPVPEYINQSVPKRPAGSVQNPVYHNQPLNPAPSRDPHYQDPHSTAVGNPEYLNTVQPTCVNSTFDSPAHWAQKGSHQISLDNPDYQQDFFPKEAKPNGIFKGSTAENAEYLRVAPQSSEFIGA

On to `Cc1cc2c(C(C)C)c(O)c(O)c(C=O)c2c(O)c1-c1c(C)cc2c(C(C)C)c(O)c(O)c(C=O)c2c1O` [gossypol], for which the EC50 at EGFR^L858R/T790M stood at 150 ± 30.7 nM; at EGFR^WT it was 253 ± 26.9 nM.
